Assay results reported in paper PMC10571035 (Science translational medicine, 2020).

Target: T1, Heat shock factor 1 (HSF1) (Homo sapiens, UniProt Q00613)
T1 sequence (Q00613 15-120 limits assumed): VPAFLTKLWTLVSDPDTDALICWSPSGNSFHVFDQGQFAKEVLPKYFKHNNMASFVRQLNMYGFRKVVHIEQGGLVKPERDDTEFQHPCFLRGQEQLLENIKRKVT
Assay: SPR Kd
Assay type: binding

- Kd: 160 nM
SMILES: O=C(Nc1ccc(F)cc1)Nc1ccc(Cl)c([N+](=O)[O-])c1 [DTHIB]
